Measurements published in PMC7614683, “A small molecule PI3Kα activator for cardioprotection and neuroregeneration” (Nature, 2023).
Where two headings read alike, the source gives them in different places.

Legend:
Test in all cases: SelectScreen Z-LYTE kinase activity assay (SI Table 6)
Type in all cases: biochemical
[1] = target: protein kinases of the Z-LYTE panel (Homo sapiens, UniProt P22607)
Summary of the method: (§1)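 A counterscreen of 133 protein and 7 lipid kinases was run with one compound concentration, 1 μM 1938, in SelectScreen Adapta, Lantha or Z-LYTE assays.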

[2] = target: protein kinases of the Z-LYTE panel (Homo sapiens, UniProt P10721)
Chain of protein kinases of the Z-LYTE panel (Homo sapiens, UniProt P10721) (P10721 26-976): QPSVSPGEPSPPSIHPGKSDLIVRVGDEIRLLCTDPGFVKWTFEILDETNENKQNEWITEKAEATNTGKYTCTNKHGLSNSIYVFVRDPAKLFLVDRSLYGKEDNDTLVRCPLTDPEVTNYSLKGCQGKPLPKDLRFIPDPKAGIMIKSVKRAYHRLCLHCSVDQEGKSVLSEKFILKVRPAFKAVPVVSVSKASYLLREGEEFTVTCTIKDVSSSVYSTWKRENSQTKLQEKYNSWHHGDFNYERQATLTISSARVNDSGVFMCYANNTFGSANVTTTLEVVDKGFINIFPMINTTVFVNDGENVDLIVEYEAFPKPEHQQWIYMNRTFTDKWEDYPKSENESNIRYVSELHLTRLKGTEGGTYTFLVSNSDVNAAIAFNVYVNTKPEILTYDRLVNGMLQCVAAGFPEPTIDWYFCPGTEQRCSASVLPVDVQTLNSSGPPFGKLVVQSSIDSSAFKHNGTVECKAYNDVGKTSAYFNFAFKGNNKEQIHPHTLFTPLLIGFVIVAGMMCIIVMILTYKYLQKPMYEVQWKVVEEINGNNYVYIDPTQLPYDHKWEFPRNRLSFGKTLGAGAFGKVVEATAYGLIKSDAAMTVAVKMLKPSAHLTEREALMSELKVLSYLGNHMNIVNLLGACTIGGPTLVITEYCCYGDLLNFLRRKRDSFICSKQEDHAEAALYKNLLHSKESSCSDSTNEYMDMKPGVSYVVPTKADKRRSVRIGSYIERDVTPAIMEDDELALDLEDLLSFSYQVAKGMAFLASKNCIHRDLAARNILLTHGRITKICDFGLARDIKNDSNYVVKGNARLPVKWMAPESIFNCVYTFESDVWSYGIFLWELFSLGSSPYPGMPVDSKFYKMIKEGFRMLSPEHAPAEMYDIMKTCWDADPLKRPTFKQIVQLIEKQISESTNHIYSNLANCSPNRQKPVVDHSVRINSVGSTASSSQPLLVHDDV
Summary of the method: as §1

[3] = target: T1, protein kinases of the Z-LYTE panel (Homo sapiens, UniProt P30530)
T1 sequence (P30530 26-894): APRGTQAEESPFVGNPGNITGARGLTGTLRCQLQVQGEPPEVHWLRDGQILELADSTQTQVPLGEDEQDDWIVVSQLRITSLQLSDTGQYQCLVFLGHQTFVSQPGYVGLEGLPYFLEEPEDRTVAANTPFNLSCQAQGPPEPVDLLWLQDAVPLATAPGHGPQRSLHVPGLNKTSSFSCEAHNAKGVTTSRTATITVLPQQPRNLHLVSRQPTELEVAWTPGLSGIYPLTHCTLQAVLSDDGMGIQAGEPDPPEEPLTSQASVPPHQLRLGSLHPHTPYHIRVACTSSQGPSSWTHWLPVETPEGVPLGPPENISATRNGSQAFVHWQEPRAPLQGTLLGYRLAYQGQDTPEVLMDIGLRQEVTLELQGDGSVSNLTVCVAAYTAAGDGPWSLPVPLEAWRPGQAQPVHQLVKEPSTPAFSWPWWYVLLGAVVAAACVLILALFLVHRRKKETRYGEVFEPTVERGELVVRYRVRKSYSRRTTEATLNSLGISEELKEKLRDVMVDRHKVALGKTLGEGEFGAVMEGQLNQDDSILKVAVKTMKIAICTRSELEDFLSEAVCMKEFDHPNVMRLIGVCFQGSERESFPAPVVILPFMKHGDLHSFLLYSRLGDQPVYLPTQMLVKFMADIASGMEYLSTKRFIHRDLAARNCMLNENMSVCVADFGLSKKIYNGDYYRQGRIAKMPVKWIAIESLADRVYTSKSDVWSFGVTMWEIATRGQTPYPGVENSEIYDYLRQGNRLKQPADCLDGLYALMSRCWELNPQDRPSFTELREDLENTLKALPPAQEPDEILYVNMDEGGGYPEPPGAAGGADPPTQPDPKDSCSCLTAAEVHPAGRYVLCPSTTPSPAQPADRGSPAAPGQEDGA
Summary of the method: as §1

[4] = target: T2, protein kinases of the Z-LYTE panel (Homo sapiens, UniProt P36888)
T2 sequence (P36888 27-993): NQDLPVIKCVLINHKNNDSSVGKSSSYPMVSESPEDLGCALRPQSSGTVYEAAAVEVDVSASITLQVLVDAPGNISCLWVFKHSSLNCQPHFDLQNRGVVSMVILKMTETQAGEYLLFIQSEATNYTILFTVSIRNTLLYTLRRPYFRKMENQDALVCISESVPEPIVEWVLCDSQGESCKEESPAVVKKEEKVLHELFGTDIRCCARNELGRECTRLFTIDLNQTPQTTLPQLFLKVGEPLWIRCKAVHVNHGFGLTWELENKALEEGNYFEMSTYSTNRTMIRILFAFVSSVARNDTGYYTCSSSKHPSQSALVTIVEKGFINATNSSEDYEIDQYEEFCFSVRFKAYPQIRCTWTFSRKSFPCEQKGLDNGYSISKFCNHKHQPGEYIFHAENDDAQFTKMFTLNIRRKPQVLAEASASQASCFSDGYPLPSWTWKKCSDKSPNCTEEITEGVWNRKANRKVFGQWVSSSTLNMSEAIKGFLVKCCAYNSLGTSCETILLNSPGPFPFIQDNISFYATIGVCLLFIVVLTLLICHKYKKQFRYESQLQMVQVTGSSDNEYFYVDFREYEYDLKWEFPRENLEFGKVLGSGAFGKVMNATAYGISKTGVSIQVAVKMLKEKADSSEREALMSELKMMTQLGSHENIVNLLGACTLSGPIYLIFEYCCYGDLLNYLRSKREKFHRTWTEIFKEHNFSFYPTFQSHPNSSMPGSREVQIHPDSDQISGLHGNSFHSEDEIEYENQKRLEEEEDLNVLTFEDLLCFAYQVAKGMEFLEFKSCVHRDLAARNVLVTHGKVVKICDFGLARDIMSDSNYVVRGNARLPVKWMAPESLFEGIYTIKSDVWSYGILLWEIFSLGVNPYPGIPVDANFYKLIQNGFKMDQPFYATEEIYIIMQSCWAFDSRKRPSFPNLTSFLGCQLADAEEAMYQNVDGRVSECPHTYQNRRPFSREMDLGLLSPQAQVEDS
Summary of the method: as §1

Chain of protein kinases of the Z-LYTE panel (Homo sapiens, UniProt P22607) (P22607 23-806): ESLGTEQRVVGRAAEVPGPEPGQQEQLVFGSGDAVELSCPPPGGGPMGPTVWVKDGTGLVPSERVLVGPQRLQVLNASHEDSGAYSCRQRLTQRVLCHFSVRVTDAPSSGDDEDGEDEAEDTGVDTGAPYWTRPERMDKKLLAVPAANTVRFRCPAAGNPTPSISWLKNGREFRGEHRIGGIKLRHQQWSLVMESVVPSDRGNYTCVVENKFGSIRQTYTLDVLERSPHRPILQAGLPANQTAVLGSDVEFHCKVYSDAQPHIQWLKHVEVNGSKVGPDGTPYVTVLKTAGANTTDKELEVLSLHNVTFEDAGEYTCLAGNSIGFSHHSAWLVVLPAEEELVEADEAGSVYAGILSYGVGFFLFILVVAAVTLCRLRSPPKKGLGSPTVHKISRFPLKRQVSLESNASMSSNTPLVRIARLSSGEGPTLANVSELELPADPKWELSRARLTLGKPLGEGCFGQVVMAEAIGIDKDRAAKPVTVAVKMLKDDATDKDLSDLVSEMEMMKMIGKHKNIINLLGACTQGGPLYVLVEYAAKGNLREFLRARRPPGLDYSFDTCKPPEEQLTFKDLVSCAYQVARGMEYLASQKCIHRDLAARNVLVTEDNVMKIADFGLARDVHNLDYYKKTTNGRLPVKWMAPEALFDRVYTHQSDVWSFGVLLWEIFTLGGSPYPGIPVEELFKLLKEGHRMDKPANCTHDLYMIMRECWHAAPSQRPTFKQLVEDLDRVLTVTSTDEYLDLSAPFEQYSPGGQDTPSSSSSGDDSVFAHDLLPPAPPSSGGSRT

Structure (SMILES): CCN1CCN(c2ccc(Nc3cc(Nc4cccc5c4N(C(C)=O)CC5)ccn3)cc2)CC1 [Compound 1938]
- inhibition at 1 µM ([1]; read-out: % Inhibition Point 1): 6%
- inhibition at 1 µM ([1]; read-out: % Inhibition Point 2): 6%
- inhibition at 1 µM ([1]; read-out: % Inhibition mean): 6%
- inhibition at 1 µM ([2]; read-out: % Inhibition Point 1): 6.43%
- inhibition at 1 µM ([2]; read-out: % Inhibition Point 2): 8%
- inhibition at 1 µM ([2]; read-out: % Inhibition mean): 7%
- inhibition at 1 µM ([3]; read-out: % Inhibition Point 1): 7%
- inhibition at 1 µM ([3]; read-out: % Inhibition Point 2): 8%
- inhibition at 1 µM ([3]; read-out: % Inhibition mean): 7.4%
- inhibition at 1 µM ([4]; read-out: % Inhibition Point 1): 19%
- inhibition at 1 µM ([4]; read-out: % Inhibition Point 2): 20%
- inhibition at 1 µM ([4]; read-out: % Inhibition mean): 19%
